According to patent publication US10597388B2, “Pyridazinone herbicides” (FMC CORPORATION, priority 2014, dated 2020):

Key:
Experiment in all cases: Test D controlled growth environment herbicide test, pre- and postemergence
Type in all cases: in vivo
[1] = test system: Russian thistle (Salsola kali)
Method in brief: (§1)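 Rating is visual, 0–100 scale (100 = complete control), made against untreated plants 14–21 d after treatment in controlled growth conditions. Postemergence sprays went onto 1- to 4-leaf plants in peat medium; preemergence sprays onto silt loam after sowing; formulation included a surfactant.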

[2] = test system: blackgrass (Alopecurus myosuroides)
Method in brief: as §1

[3] = test system: bluegrass (annual bluegrass, Poa annua)
Method in brief: as §1

[4] = test system: buckwheat, wild (wild buckwheat, Polygonum convolvulus)
Method in brief: as §1

[5] = test system: canarygrass (Phalaris minor)
Method in brief: as §1

[6] = test system: chickweed (common chickweed, Stellaria media)
Method in brief: as §1

[7] = test system: field poppy (Papaver rhoeas)
Method in brief: as §1

[8] = test system: foxtail, green (green foxtail, Setaria viridis)
Method in brief: as §1

[9] = test system: galium (catchweed bedstraw, Galium aparine)
Method in brief: as §1

kochia (Kochia scoparia) = test system: kochia (Kochia scoparia)
Method in brief: as §1

[10] = test system: pigweed (Amaranthus retroflexus)
Method in brief: as §1

[11] = test system: ryegrass, Italian (Italian ryegrass, Lolium multiflorum)
Method in brief: as §1

[12] = test system: wheat, winter (winter wheat, Triticum aestivum)
Method in brief: as §1

[13] = Postemergence, 31 g ai/ha, scale 0 to 100 (0 no effect, 100 complete control)
[14] = Postemergence, 125 g ai/ha, visual rating on scale 0 (no effect) to 100 (complete control), 14 to 21 d
[15] = Postemergence, 250 g ai/ha, scale 0 to 100 (0 no effect, 100 complete control)
[16] = Preemergence, 62 g ai/ha, scale 0 to 100 (0 no effect, 100 complete control)
[17] = Preemergence, 125 g ai/ha, scale 0 to 100 (0 no effect, 100 complete control)
[18] = Preemergence, 250 g ai/ha, scale 0 to 100 (0 no effect, 100 complete control)
[19] = postemergence, 62 g ai/ha, scale 0 to 100, 0 no effect, 100 complete control

CCC(=O)Oc1c(C)nn(C)c(=O)c1-c1c(C)sc2ccc(C)cc12 [Compound 42]
Russian Thistle plant response rating [1, 13]: 70
Plant response rating, Russian Thistle [1, 14]: 85
Plant response rating, Russian Thistle [1, 15]: 90
Plant response rating (scale of 0 to 100), Russian Thistle ([1]; Preemergence, 31 g ai/ha): 10
Plant response rating, Russian Thistle [1, 16]: 15
Plant response rating, Russian Thistle [1, 17]: 65
Plant response rating, Russian Thistle [1, 18]: 75
Plant response rating, Russian Thistle [1, 19]: 75
Blackgrass plant response rating [2, 13]: 75
Plant response rating, Blackgrass [2, 14]: 80
Plant response rating, Blackgrass [2, 15]: 85
Plant response rating (scale of 0 to 100), Blackgrass ([2]; Preemergence, 31 g ai/ha): 80
Plant response rating, Blackgrass [2, 16]: 80
Plant response rating, Blackgrass [2, 17]: 95
Blackgrass plant response rating [2, 18]: 100
Plant response rating, Blackgrass [2, 19]: 75
Bluegrass plant response rating [3, 13]: 15
Plant response rating, Bluegrass [3, 14]: 20
Plant response rating, Bluegrass [3, 15]: 35
Plant response rating (scale of 0 to 100), Bluegrass ([3]; Preemergence, 31 g ai/ha): 35
Plant response rating, Bluegrass [3, 16]: 45
Plant response rating, Bluegrass [3, 17]: 65
Bluegrass plant response rating [3, 18]: 80
Plant response rating, Bluegrass [3, 19]: 20
Buckwheat, Wild plant response rating [4, 13]: 80
Plant response rating, Buckwheat, Wild [4, 14]: 100
Plant response rating, Buckwheat, Wild [4, 15]: 100
Plant response rating (scale of 0 to 100), Buckwheat, Wild ([4]; Preemergence, 31 g ai/ha): 20
Plant response rating, Buckwheat, Wild [4, 16]: 25
Plant response rating, Buckwheat, Wild [4, 17]: 80
Plant response rating, Buckwheat, Wild [4, 18]: 60
Plant response rating, Buckwheat, Wild [4, 19]: 95
Canarygrass plant response rating [5, 13]: 50
Plant response rating, Canarygrass [5, 14]: 80
Plant response rating, Canarygrass [5, 15]: 80
Plant response rating (scale of 0 to 100), Canarygrass ([5]; Preemergence, 31 g ai/ha): 90
Plant response rating, Canarygrass [5, 16]: 95
Plant response rating, Canarygrass [5, 17]: 100
Plant response rating, Canarygrass [5, 18]: 100
Plant response rating, Canarygrass [5, 19]: 75
Chickweed plant response rating [6, 13]: 95
Plant response rating, Chickweed [6, 14]: 100
Plant response rating, Chickweed [6, 15]: 100
Plant response rating (scale of 0 to 100), Chickweed ([6]; Preemergence, 31 g ai/ha): 100
Plant response rating, Chickweed [6, 16]: 100
Plant response rating, Chickweed [6, 17]: 100
Plant response rating, Chickweed [6, 18]: 100
Plant response rating, Chickweed [6, 19]: 100
Field Poppy plant response rating [7, 13]: 65
Plant response rating, Field Poppy [7, 14]: 100
Plant response rating, Field Poppy [7, 15]: 100
Plant response rating (scale of 0 to 100), Field Poppy ([7]; Preemergence, 31 g ai/ha): 100
Plant response rating, Field Poppy [7, 16]: 100
Plant response rating, Field Poppy [7, 17]: 100
Plant response rating, Field Poppy [7, 18]: 100
Plant response rating, Field Poppy [7, 19]: 85
Foxtail, Green plant response rating [8, 13]: 35
Plant response rating, Foxtail, Green [8, 14]: 65
Plant response rating, Foxtail, Green [8, 15]: 80
Plant response rating (scale of 0 to 100), Foxtail, Green ([8]; Preemergence, 31 g ai/ha): 30
Plant response rating, Foxtail, Green [8, 16]: 65
Plant response rating, Foxtail, Green [8, 17]: 100
Plant response rating, Foxtail, Green [8, 18]: 100
Plant response rating, Foxtail, Green [8, 19]: 50
Galium plant response rating [9, 13]: 100
Plant response rating, Galium [9, 14]: 100
Plant response rating, Galium [9, 15]: 100
Plant response rating (scale of 0 to 100), Galium ([9]; Preemergence, 31 g ai/ha): 70
Plant response rating, Galium [9, 16]: 85
Plant response rating, Galium [9, 17]: 95
Plant response rating, Galium [9, 18]: 100
Plant response rating, Galium [9, 19]: 100
Kochia plant response rating (kochia (Kochia scoparia); [13]): 70
Plant response rating, Kochia (kochia (Kochia scoparia); [14]): 95
Plant response rating, Kochia (kochia (Kochia scoparia); [15]): 100
Plant response rating (scale of 0 to 100), Kochia (kochia (Kochia scoparia); Preemergence, 31 g ai/ha): 20
Plant response rating, Kochia (kochia (Kochia scoparia); [16]): 60
Plant response rating, Kochia (kochia (Kochia scoparia); [17]): 75
Plant response rating, Kochia (kochia (Kochia scoparia); [18]): 100
Plant response rating, Kochia (kochia (Kochia scoparia); [19]): 90
Pigweed plant response rating [10, 13]: 85
Plant response rating, Pigweed [10, 14]: 90
Plant response rating, Pigweed [10, 15]: 100
Plant response rating (scale of 0 to 100), Pigweed ([10]; Preemergence, 31 g ai/ha): 90
Plant response rating, Pigweed [10, 16]: 100
Plant response rating, Pigweed [10, 17]: 100
Plant response rating, Pigweed [10, 18]: 100
Plant response rating, Pigweed [10, 19]: 90
Ryegrass, Italian plant response rating [11, 13]: 75
Plant response rating, Ryegrass, Italian [11, 14]: 85
Plant response rating, Ryegrass, Italian [11, 15]: 85
Plant response rating (scale of 0 to 100), Ryegrass, Italian ([11]; Preemergence, 31 g ai/ha): 95
Plant response rating, Ryegrass, Italian [11, 16]: 100
Plant response rating, Ryegrass, Italian [11, 17]: 100
Plant response rating, Ryegrass, Italian [11, 18]: 100
Plant response rating, Ryegrass, Italian [11, 19]: 80
Wheat, Winter plant response rating [12, 13]: 0
Plant response rating, Wheat, Winter [12, 14]: 10
Plant response rating, Wheat, Winter [12, 15]: 15
Plant response rating (scale of 0 to 100), Wheat, Winter ([12]; Preemergence, 31 g ai/ha): 0
Plant response rating, Wheat, Winter [12, 16]: 0
Plant response rating, Wheat, Winter [12, 17]: 5
Plant response rating, Wheat, Winter [12, 18]: 15
Plant response rating, Wheat, Winter [12, 19]: 5
